According to patent US8680272B2, “3-arylethynyl substituted quinazolinone compounds” (Council of Scientific & Industrial Research, priority 2011, dated 2014):

How the values were obtained:
SNB-19 = experiment: Anticancer activity, SRB assay, CNS cell line SNB-19; type: cell-based, human; settings: CNS SNB-19; 48 h continuous drug exposure; —^b means GI50 values not attained at the concentrations used
Method: (§1) Some of biological activity studies were carried out at the National Cancer Institute (NCI), Maryland, USA.
(§2) The compounds were evaluated for anticancer activity against sixty human cancer cells derived from nine cancer types (leukemia cell line, non-small-cell lung cell line, colon cell line, CNS cell line, melanoma cell line, ovarian cell line, prostate cell line, renal cell line and breast cancer cell line) as shown in Table 1. For each compound, dose response curves for each cell line were measured at a minimum of five concentrations at 10 fold dilutions. A protocol of 48 h continuous drug exposure was used and a sulforhodamine B (SRB) protein assay was used to estimate cell viability or growth.

SR = experiment: Anticancer activity, SRB assay, leukemia cell line SR; type: cell-based; settings: Homo sapiens, 48 h continuous drug exposure, read-out: Growth Inhibition GI50
Method: as §1, §2

[1] = tested on: seven colon cancer cell line (COLO 205, HCC-2998, HCT-116, HCT-15, HT29, KM12 and SW-620); experiment: Anticancer activity, SRB assay, colon panel; type: cell-based, human
Method: as §1, §2

MDA-MB-231/ATCC = experiment: Anticancer activity, SRB assay, breast cell line MDA-MB-231/ATCC; type: cell-based; settings: Homo sapiens; Breast MDA-MB-231/ATCC; 48 h continuous drug exposure; read-out: Growth Inhibition GI50
Method: as §1, §2

[2] = tested on: six breast cancer cell line (MCF-7, MDA-MB-231/ATCC, HS 578T, TD-47D, MDA-MB-468 and BT-549); experiment: Anticancer activity, SRB assay, breast panel; type: cell-based, human
Method: as §1, §2

CCRF-CEM = experiment: Anticancer activity, SRB assay, leukemia cell line CCRF-CEM; type: cell-based, human; settings: 48 h continuous drug exposure, —^b means GI50 values not attained at the concentrations used
Method: as §1, §2

SF-295 = experiment: Anticancer activity, SRB assay, CNS cell line SF-295; type: cell-based, human; settings: CNS SF-295; 48 h continuous drug exposure; —^b means GI50 values not attained at the concentrations used
Method: as §1, §2

HT29 = experiment: Anticancer activity, SRB assay, colon cell line HT29; type: cell-based; settings: Homo sapiens, HT-29, 48 h continuous drug exposure, read-out: Growth Inhibition GI50
Method: as §1, §2

UACC-62 = experiment: Anticancer activity, SRB assay, melanoma cell line UACC-62; type: cell-based; settings: Homo sapiens; Melanoma UACC-62; 48 h continuous drug exposure; read-out: Growth Inhibition GI50
Method: as §1, §2

A549/ATCC = experiment: Anticancer activity, SRB assay, non-small lung cell line A549/ATCC; type: cell-based, human; settings: 48 h continuous drug exposure, —^b means GI50 values not attained at the concentrations used
Method: as §1, §2

HOP-62 = experiment: Anticancer activity, SRB assay, non-small lung cell line HOP-62; type: cell-based, human; settings: Non-small lung HOP-62; 48 h continuous drug exposure; —^b means GI50 values not attained at the concentrations used
Method: as §1, §2

SW-620 = experiment: Anticancer activity, SRB assay, colon cell line SW-620; type: cell-based; settings: Homo sapiens; Colon SW-620; 48 h continuous drug exposure; read-out: Growth Inhibition GI50
Method: as §1, §2

786-0 = experiment: Anticancer activity, SRB assay, renal cell line 786-0; type: cell-based, human; settings: Renal 786-0; 48 h continuous drug exposure; —^b means GI50 values not attained at the concentrations used
Method: as §1, §2

ACHN = experiment: Anticancer activity, SRB assay, renal cell line ACHN; type: cell-based, human; settings: 48 h continuous drug exposure, —^b means GI50 values not attained at the concentrations used
Method: as §1, §2

[3] = Anticancer activity, SRB assay, melanoma panel; type: cell-based, human; settings: Homo sapiens; nine melanoma cancer cell line; exposure period of at least 48 h; read-out: GI50 (range over the panel)
Method: as §1, §2

[4] = tested on: nine melanoma cancer cell line (LOX IMVI, MALME-3M, M14, MDA-MB-435, SK-MEL-2, SK-MEL-28, SK-MEL-5, UACC-257 and UACC-62); experiment: Anticancer activity, SRB assay, melanoma panel; type: cell-based, human; settings: Melanoma
Method: as §1, §2

NCI-H460 = experiment: Anticancer activity, SRB assay, non-small lung cell line NCI-H460; type: cell-based; settings: Homo sapiens, Non-small lung NCl-H460, 48 h continuous drug exposure, read-out: Growth Inhibition GI50
Method: as §1, §2

SF-268 = experiment: Anticancer activity, SRB assay, CNS cell line SF-268; type: cell-based, human; settings: CNS SF-268; 48 h continuous drug exposure; —^b means GI50 values not attained at the concentrations used
Method: as §1, §2

MDA-MB-435 = experiment: Anticancer activity, SRB assay, melanoma cell line MDA-MB-435; type: cell-based, human; settings: Melanoma MDA-MB-435; 48 h continuous drug exposure; —^b means GI50 values not attained at the concentrations used
Method: as §1, §2

UO-31 = experiment: Anticancer activity, SRB assay, renal cell line UO-31; type: cell-based, human; settings: Renal UO-31; 48 h continuous drug exposure; —^b means GI50 values not attained at the concentrations used
Method: as §1, §2

SNB-75 = experiment: Anticancer activity, SRB assay, CNS cell line SNB-75; type: cell-based, human; settings: CNS SNB-75; 48 h continuous drug exposure; —^b means GI50 values not attained at the concentrations used
Method: as §1, §2

MDA-MB-468 = experiment: Anticancer activity, SRB assay, breast cell line MDA-MB-468; type: cell-based; settings: Homo sapiens; Breast MDA-MB-468; 48 h continuous drug exposure; read-out: Growth Inhibition GI50
Method: as §1, §2

RPMI-8226 = experiment: Anticancer activity, SRB assay, leukemia cell line RPMI-8226; type: cell-based; settings: Homo sapiens; Leukemia RPMI-8226; 48 h continuous drug exposure; read-out: Growth Inhibition GI50
Method: as §1, §2

MALME-3M = experiment: Anticancer activity, SRB assay, melanoma cell line MALME-3M; type: cell-based; settings: Homo sapiens; Melanoma MALME-3M; 48 h continuous drug exposure; read-out: Growth Inhibition GI50
Method: as §1, §2

SK-MEL-28 = experiment: Anticancer activity, SRB assay, melanoma cell line SK-MEL-28; type: cell-based, human; settings: Melanoma SK-MEL-28; 48 h continuous drug exposure; —^b means GI50 values not attained at the concentrations used
Method: as §1, §2

K-562 = experiment: Anticancer activity, SRB assay, leukemia cell line K-562; type: cell-based; settings: Homo sapiens, K562; Leukemia K-562; 48 h continuous drug exposure; read-out: Growth Inhibition GI50
Method: as §1, §2

OVCAR-4 = experiment: Anticancer activity, SRB assay, ovarian cell line OVCAR-4; type: cell-based, human; settings: Ovarian OVCAR-4; 48 h continuous drug exposure; —^b means GI50 values not attained at the concentrations used
Method: as §1, §2

In the case of `COc1ccc2cc(C#Cc3ccc(-n4c(/C=C/c5cc(OC)c(OC)c(OC)c5)nc5ccccc5c4=O)c(C)c3)ccc2c1` [Compound 6l, (E)-3-(4-((6-Methoxynaphthalen-2-yl)ethynyl)-2-methylphenyl)-2-(3,4,5-trimethoxystyryl)quinazolin-4(3H)-one], the “Growth Inhibition GI50” value (SNB-19) is reported as “—^b”, the GI50 (SR) is reported as 0.395 µM and the “mean graph midpoint values (MG_MID) of log10 TGI (Log10TGI50)” value (from here on “mean graph midpoint values … (Log10TGI50)”) ([1]; Colon, log value of concentration of the compound resulting in total inhibition of net cell growth) is reported as over −4.00. The “mean graph midpoint values (MG_MID) of Log10LC50” value ([1]; Colon, log value of the concentration of compounds leading to 50% net cell death) was over −4.00, the “mean graph midpoint values (MG_MID) of Log10GI50” value ([1]; Colon, log values of concentration in mol/L causing 50% inhibition of net cell growth) was −5.16 mol/L and the GI50 ([1]; Homo sapiens, seven colon cancer cell line, exposure period of at least 48 h, read-out: GI50 (range over the panel)) was 1.22 to 17.2 µM. The GI50 (MDA-MB-231/ATCC) was 37 µM, the “mean graph midpoint values … (Log10TGI50)” value ([2]; Breast, log value of concentration of the compound resulting in total inhibition of net cell growth) was over −4.00 and the “mean graph midpoint values (MG_MID) of Log10LC50” value ([2]; Breast, log value of the concentration of compounds leading to 50% net cell death) was over −4.00. The “mean graph midpoint values (MG_MID) of Log10GI50” value ([2]; Breast, log values of concentration in mol/L causing 50% inhibition of net cell growth) was −4.51 mol/L, the GI50 ([2]; Homo sapiens, six breast cancer cell line, exposure period of at least 48 h, read-out: GI50 (range over the panel)) was 3.8 to 63.8 µM and the “Growth Inhibition GI50” value (CCRF-CEM) was “—^b”. The “Growth Inhibition GI50” value (SF-295) was “—^b”, the GI50 (HT29) was 3.41 µM and the GI50 (UACC-62) was 2.19 µM. For the same molecule, the “Growth Inhibition GI50” value (A549/ATCC) was “—^b”, the “Growth Inhibition GI50” value (HOP-62) was “—^b” and the GI50 (SW-620) was 17.2 µM. For the same molecule, the “Growth Inhibition GI50” value (786-0) was “—^b”, the “Growth Inhibition GI50” value (ACHN) was “—^b” and the GI50 [3] was 1.85 to 42.6 µM. The “mean graph midpoint values … (Log10TGI50)” value ([4]; log value of concentration of the compound resulting in total inhibition of net cell growth) was over −4.00, the “mean graph midpoint values (MG_MID) of Log10LC50” value ([4]; log value of the concentration of compounds leading to 50% net cell death) was over −4.00 and the “mean graph midpoint values (MG_MID) of Log10GI50” value ([4]; log values of concentration in mol/L causing 50% inhibition of net cell growth) was −4.79 mol/L. The GI50 (NCI-H460) was 2.48 µM, the “Growth Inhibition GI50” value (SF-268) was “—^b” and the “Growth Inhibition GI50” value (MDA-MB-435) was “—^b”. For the same molecule, the “Growth Inhibition GI50” value (UO-31) was “—^b”, the “Growth Inhibition GI50” value (SNB-75) was “—^b” and the GI50 (MDA-MB-468) was 3.8 µM. For the same molecule, the GI50 (RPMI-8226) was 0.821 µM, the GI50 (MALME-3M) was 42.6 µM and the “Growth Inhibition GI50” value (SK-MEL-28) was “—^b”. For the same molecule, the GI50 (K-562) was 0.882 µM and the “Growth Inhibition GI50” value (OVCAR-4) was “—^b”.
